Columns and labels:
[1] = tested on: human embryonic stem cell line H1; test: Real-time PCR of pluripotency and differentiation genes; type: cell-based; conditions: passage 3, Example 5
From the text: After passage 5, only IH-1 and IH-3 were further compared to the cells cultured in mTeSR®1 media (Catalog No. 05850, Stem-Cell Technologies, Inc., Vancouver BC, Canada). […]
Approximately 1% of the cells were SOX17+ (FIG. 7D) and ˜85% of the cells were FOXA2+ (FIG. 7E). FIG. 8A to FIG. 8F show images of immunofluorescence staining of H1 cells cultured in IH-3 media for 18 passages. These images illustrate that a significant number of OCT4 and SOX2 positive cells were also FOXA2+. H1 cells cultured in IH3 media had acquired a phenotype where at least 70% of the cells were OCT4+ NANOG+ SOX2+ KI-67+ ZFP42− and FOXA2+. This represents a population of cells not yet described in the art.

[2] = tested on: human embryonic stem cell line H1; test: Culture in test media: growth and colony morphology (phase-contrast); type: cell-based; conditions: Example 5
Description: Cells of the human embryonic stem cell line H1 (at passage 35 to passage 40), cultured on MATRIGEL™ (Catalog No. 354230, 1:30 dilution; Corning Incorporated, Corning, N.Y.) coated dishes in mTeSR®1 media (Catalog No. 05850, Stem-Cell Technologies, Inc., Vancouver BC, Canada) and passaged using ethylenediaminetetraacetic acid (“EDTA”), were used as the starting population to test various media compositions. Cells were passaged as small colonies using 5-10 min EDTA (Catalog No. #170711E, Lonza Walkersville, Inc., Walkersville, Md.) treatment at room temperature. Cultures were routinely split in a ratio of 1:6 to 1:10 at each passage. Table I lists the initial media formulations tested for their ability to proliferate H1 cells while maintaining their undifferentiated morphology and pluripotency markers.
Media IH-1, IH-3, and IH-6 were selected for further evaluation.

[3] = day 4 following seeding, IH-3-2 media with the given BSA
[4] = passage 3, IH-3-2 media with the given BSA

Substance	Markers associated with a differentiated cell (AFP, MIXL1, T (BRY); PCR) [1]	Cell morphology [2, 3]	Cell morphology [2, 4]	Confluency of cells ([2]; passage 3, compared to fatty acid free BSA)
Sigma BSA: 2% Sigma BSA (catalog No. A2153; Lot: 061M1804V, Sigma Aldrich) used to supplement IH-3-2 media	significant upregulation	morphological evidence of differentiated cells	morphological evidence of differentiated cells	significant drop in confluency
fatty acid-free BSA: fatty-acid free BSA (Catalog No. 7500804; Lot: 11G54001, LAMPIRE Biological Laboratories) in IH-3-2 media		no gross differentiated cell morphology evident	no gross differentiated cell morphology evident	
